Source: US7265091B2, “Methods and compositions for treating male erectile dysfunction” (The Regents of the University of California, priority 2000, dated 2007)

Legend:
[1] = test system: penile smooth muscle (alpha actin); assay: Alpha-smooth muscle actin immunohistochemistry of rat penis with image analysis; format: in vivo; conditions: castrated rats
Experimental: Frozen sections were cut at 10 microns, adhered to charged slides, air dried for 15 minutes then rehydrated with 0.05M PBS for 5 minutes. […] The serum solution was drained and then sections were incubated for 60 minutes with mouse monoclonal anti-alpha-smooth muscle actin (Sigma, St. Louis, Mo.) at a dilution of 1:4000 in PBS. […] Immunochemistry was performed in penile tissues from 4 rats randomly chosen from each subgroup.
Cross-sectional micrographs of the rat penis at the proximal shaft were examined after immunohistochemistry for alpha actin. Alpha actin, a marker for penile smooth muscle, stains brown and can be seen surrounding the sinusoidal spaces. […] Computerized image analysis with Adobe Photoshop was used to quantify the area of immunostaining by counting the number of digitized pixels corresponding to the area of brown staining, thereby providing some numerical comparison of the quantity of smooth muscle in each specimen.

[2] = test system: dorsal nerve, intracavernous smooth muscle cells and endothelial cells; assay: Transmission electron microscopy of penile tissue (Example 2); format: in vivo, rat
Text: Thick sections were cut and stained with toluidine blue to select specific areas for thin sectioning. Thin sections were cut, stained with both uranyl acetate and Reynold's Lead, and examined under the Phillips Tecnai 10 transmission electron microscope. Penile tissues from 4 randomly chosen rats in each subgroups were subjected to electron microscopic examinations.

[3] = test system: Erectile Dysfunction Induced by Hypercholesterolemia in a Rat Model; assay: Erectile function in rats fed a high cholesterol diet (Example 5); format: in vivo; conditions: 6 months cholesterol diet, 4 months after intracavernous treatment
Experimental: Twenty-one Sprague-Dawley rats were used. All rats were fed a 2.5% cholesterol diet with added lard starting at 2 weeks of age for 6 months. The rats were divided into three groups. All groups after two months of a high cholesterol diet underwent serum evaluation of cholesterol and intracavernous injection of saline or treatment. Group 1, the control group, received intracavernous injection of saline, group 2, the VEGF group, received intracavernous injection of 4 ug of VEGF, and group 3, the AAV-BDNF group received 15 ug of BDNF. After six months of cholesterol diet and 4 months of treatment, all rats were subjected to cavernous nerve electrostimulation, cavernosometry with intracavernous papaverine injection, and infusion cavernosometry with heparinized saline to measure erectile function.

[4] = test system: major pelvic ganglia (MPG); assay: Nerve fiber outgrowth from cultured major pelvic ganglia; format: cell-based, rat; set-up: Average fiber length / FIBER LENGTH (average lengths of the growing fibers): unit not given here
Experimental: Each freshly isolated MPG was cut into 8 pieces of approximately equal size and each piece was then attached to a Matrigel-coated coverslip. The MPG pieces were cultured in serum-free medium supplemented with phosphate-buffered saline (PBS, control), 50 ng/ml of vascular endothelial growth factor (VEGF), 20 ng/ml of brain-derived neurotrophic factor (BDNF), or VEGF+BDNF. After 2 days of incubation, the ganglial tissues with their outgrowing nerve fibers were stained for the expression of NADPH diaphorase and acetylcholinesterase (AchE).
We have been using several experimental systems to test the efficacy of combination growth factor therapies for impotence. One system employs cultured rat major pelvic ganglia (MPG) that are known to innervate all urogenital organs, including the penis. We discovered that the cultured MPG are able to sprout new nerve fibers (nerve regeneration) from the axonal ends during the first 3 days of culture, especially when treated with VEGF, BDNF, NT-3, or NT-4.

[5] = test system: cavernous nerve injury in rats; assay: Maximal intracavernous pressure after bilateral cavernous nerve freezing (Example 9, VENT); format: in vivo, rat; conditions: 3 months after bilateral cavernous nerve freezing, intracavernous injection
Experimental: Three months old Sprague-Dawley rats (N=30) were used: 6 underwent a sham operation; 24 underwent bilateral cavernous nerve freezing and then randomly divided into four groups of 6 each. The four groups of rats received intracavernous injection of one of the following: 1) phosphate buffered saline (PBS), 2) VEGF protein (4 μg), 3) adeno-associated virus (AAV)-BDNF, and 4). VEGF+AAV-BDNF. Erectile function was assessed by cavernous nerve electrostimulation 3 months later and samples of penile tissue were obtained for electron microscopy and immunohistochemical studies.

[6] = test system: outgrowing blood vessels in artery-muscle co-culture; assay: Artery-muscle co-culture; format: cell-based
Text: We extended our above angiogenesis model to include muscles in a co-culture system. The source of muscle was corpus cavernosum, urethra sphincter, or bladder. […] In addition, the combination of VEGF and PDGF encouraged more extensive contacts between the outgrowing vessels with the muscle. More studies with either single or a combination of other growth factors and the molecular mechanism of vessel growth are currently underway. Once the best growth factor or combinations are identified, we will perform in vivo studies in rats with severe vasculogenic ED to see if the in vitro assay helps identify the best angiogenins.

[7] = test system: cavernous smooth muscle cells (CSMC); conditions: CSMC from rats of all ages, three days, serum-free medium
Experimental: Each primary culture of CSMC was prepared from the corpora cavernosa of 2-3 rats by the following procedure. The penis was cleared of the urethra, blood vessels, fat and connective tissue. The remaining smooth muscle tissue was washed 3 times in sterile PBS (phosphate-buffered saline) and cut into 2-3 mm^3 segments. The segments were placed evenly onto a 100-mm cell culture dish (Falcon-Becton Dickinson Labware, Franklin Lakes, N.J.) inside a cell culture hood. Approximately 10 min later, 10 ml of Dulbecco's Modified Eagle Medium (DMEM) containing penicillin (100 units/ml), streptomycin (100 μg/ml), and 10% FBS was carefully pipetted into the dish. The dish was then kept undisturbed in a humidified 37° C. incubator with 5% CO2. Five days later, tissue segments that have detached from the dish were removed, and the medium was replaced with fresh medium. Another 5 days later, all tissue segments were removed and the medium was again replaced with fresh medium. When small islands of cells were noticeable, they were trypsinized and transferred to a fresh culture dish. […]
Cell proliferation assays were performed with the CellTiter-96 kit from Promega Inc. (Madison, Wis.). […] After 4 hr of further incubation at 37° C. in the humidified, 5% CO2 incubator, color development, which reflects cell numbers, was recorded with a plate reader (Molecular Devices Corp., Sunnyvale, Calif.) at 490-nm absorbance. […]

[8] = test system: cavernous smooth muscle cells (CSMC); conditions: 4 hr
Experimental: (§1) Primary aorta SMC cultures were prepared similarly with aortas isolated from 16-week-old male rats.
(§2) Cell migration assays were performed in 6.5-mm Transwell chambers of Corning Costar Corporation (Cambridge, Mass.). The Transwell inserts (upper chambers) were bathed in a solution containing 13.4 μg/ml fibronectin in PBS at 37° C. for 1 hr and allowed to air-dry. The dried upper chambers were then placed in the lower chambers, each of which contained 700 μl of serum-free DMEM supplemented with 0.1% BSA and 0 to 500 ng/ml of VEGF. SMC that had been grown to 70% confluence were further conditioned in serum-free DMEM (containing 0.1% BSA) for 2 hr and then trypsinized. The trypsinized cells were washed in PBS and resuspended at a concentration of 80,000 cells per ml in serum-free DMEM (containing 0.1% BSA). One hundred μl of the cell suspension was then added to each upper chamber. After 4 hr of incubation at 37° C., all liquid in the upper and lower chambers was removed by aspiration. The membranes in the upper chambers were subsequently fixed in 1% buffered formalin for 5 min and stained with 2% crystal violet. Non-migratory cells on the upper side of the membranes were scraped off with cotton swabs. Well locations were marked on the membranes and total cells per well were counted visually in a masked fashion. Well locations were then correlated with the concentrations of VEGF in the wells. […]

VSMC (aorta SMC) = conditions: VSMC from 16-weeks-old rats
Experimental: as §1, §2

[9] = castrated rats treated with VEGF or AAV-VEGF (pooled)
[10] = 50 ng/ml VEGF, 20 ng/ml BDNF, 2 days of incubation

For VEGF, the “quantity of penile smooth muscle, qualitative” value [1] was “returns to normal morphology”, the “pixel count of alpha actin immunostaining (quantity of smooth muscle)” value ([1]; proximal penile shaft) was 52990 and the “endothelial cells lining capillaries and sinusoids” value ([2]; castrated rats) was “endothelial hypertrophy and hyperplasia”. For the same substance, the “mean diameter of non-myelinated axons, dorsal nerve” value [2, 9] was 0.96±0.33 μm, the “mean diameter of the myelinated nerve, dorsal nerve” value [2, 9] was 2.36±0.92 μm and the “mean thickness of myelin sheath, dorsal nerve” value [2, 9] was 0.93±0.44 μm. The “intracavernous smooth muscle morphology” value ([2]; castrated rats, compared to castrated+Lac Z rats) was “arranged in clusters with minimal intercellular spaces”, the “effect on erectile dysfunction caused by high cholesterol diet” value [3] was “seem to reverse the erectile dysfunction” and the “sustained intracavernous pressures during the pharmacologic erection phase of cavernosometry, vs high cholesterol controls” value [3] was “significantly higher”. For the same substance, the AchE staining intensity [4, 10] was 8,470±199 IDV, the NADPH staining intensity [4, 10] was 10,126±187 IDV and the “FIBER LENGTH (average lengths of the growing fibers)” value ([4]; 48 hours after culturing) was 89. For the same substance, the “maximal intracavernous pressure (MICP), mean±SEM” value [5] was 37.33±3.29 cm H2O, the “cell growth in artery-muscle co-culture” value [6] was “encourage the growth of endothelial cells” and the “optimal dosage of VEGF for CSMC growth rate” value [7] was 12.5 ng/mL. The “VEGF concentration of peak CSMC migration” value ([8]; CSMC from 1-week-old rats) was 1 ng/mL, the “optimal dosage of VEGF for CSMC migration” value ([8]; CSMC from young and old rats except 1-week-old) was 10 ng/mL and the “effect on migration of VSMC” value (VSMC (aorta SMC)) was “stimulated migration”.
